Results: US10105357B2, “Indication of antibiotic drugs for preparation of cancer inhibition pharmaceutical composition” (LAUNX BIOMEDICAL CO., LTD., priority 2014, dated 2018)
Read-outs that look alike come from different tables or passages of the source.

Assays:
[1] = system: U-2OS; experiment: Cell viability analysis, osteosarcoma U-2OS; type: cell-based, human; details: Homo sapiens, 72 h; U2OS; repeated experiment; read-out: The results of antibiotic drug inhibiting cancer cell lines (cell viability analysis), U2OS
[2] = system: HeLa (Cervix Adenocarcinoma); experiment: Cell viability analysis, cervical cancer HeLa; type: cell-based, human; details: Homo sapiens, HeLa, 72 h, HeLa
[3] = system: HCT116 (p53+) (Colorectal Carcinoma)
[4] = system: HL-60 (Acute Promyelocytic Leukemia); experiment: Cell viability analysis, leukemia HL-60; type: cell-based, human; details: Homo sapiens, HL-60, 72 h, drug 10 μM, 72 hours, WST-1, OD450 nm; read-out: cell viability (survival rate), HL-60
[5] = system: MKN-45 (Gastric Adenocarcinoma); experiment: Cell viability analysis, gastric cancer MKN-45; type: cell-based, human; details: Homo sapiens, MKN-45, 72 h
[6] = system: MDA-MB-231 (Mammary Gland, Adenocarcinoma); experiment: Cell viability analysis, breast cancer MDA-MB-231; type: cell-based, human; details: Homo sapiens, MDA-MB-231, 72 h; MDA-MB231; repeated experiment; read-out: The results of antibiotic drug inhibiting cancer cell lines (cell viability analysis), MDA-MB231
[7] = system: A375 (Amelanotic Melanoma); experiment: Cell viability analysis, skin cancer A375; type: cell-based, human; details: Homo sapiens, A-375, 72 h
[8] = system: TOV-21G; experiment: Cell viability analysis, ovarian cancer TOV-21G; type: cell-based, human; details: Homo sapiens, TOV21G, 72 h; TOV-21G; repeated experiment; read-out: The results of antibiotic drug inhibiting cancer cell lines (cell viability analysis), TOV-21G
[9] = system: LoVo (Colorectal Adenocarcinoma); experiment: Cell viability analysis, colon cancer LoVo; type: cell-based, human; details: Homo sapiens, LoVo, 72 h
[10] = system: HI650 (Lung Adenocarcinoma); experiment: Cell viability analysis, lung cancer HI650; type: cell-based, human; details: Homo sapiens, NCI-H1650, 72 h
[11] = system: AGS (Gastric Adenocarcinoma); experiment: Cell viability analysis, gastric cancer AGS; type: cell-based, human; details: Homo sapiens, 72 h
[12] = system: BxPC-3; experiment: Cell viability analysis, pancreatic cancer BxPC-3; type: cell-based, human; details: Homo sapiens, 72 h; BxPC-3; repeated experiment; read-out: The results of antibiotic drug inhibiting cancer cell lines (cell viability analysis), BxPC-3
[13] = system: C-33A (Cervical carcinoma); experiment: Cell viability analysis, cervical cancer C-33A; type: cell-based, human; details: Homo sapiens, 72 h; C-33A; repeated experiment; read-out: The results of antibiotic drug inhibiting cancer cell lines (cell viability analysis), C-33A
[14] = system: 786-O (Renal adenocarcinoma); experiment: Cell viability analysis, renal cancer 786-O; type: cell-based, human; details: Homo sapiens, 786-0, 72 h; 786-O; repeated experiment; read-out: The results of antibiotic drug inhibiting cancer cell lines (cell viability analysis), 786-O
[15] = system: MCF7 (Mammary Gland, Adenocarcinoma); experiment: Cell viability analysis, breast cancer MCF7; type: cell-based, human; details: Homo sapiens, MCF7, 72 h
[16] = system: AsPC-1; experiment: Cell viability analysis, pancreatic cancer AsPC-1; type: cell-based, human; details: Homo sapiens, ASPC1, 72 h; AsPC-1; repeated experiment; read-out: The results of antibiotic drug inhibiting cancer cell lines (cell viability analysis), AsPC-1
[17] = system: A549 (Lung Adenocarcinoma); experiment: Cell viability analysis, lung cancer A549; type: cell-based, human; details: Homo sapiens, A549, 72 h
[18] = system: PC3 (p53−) (Prostate Adenocarcinoma); experiment: Cell viability analysis, prostate cancer PC3; type: cell-based, human; details: Homo sapiens, 72 h
[19] = system: SAS (Tongue squamous cell carcinoma); experiment: Cell viability analysis, tongue cancer SAS; type: cell-based, human; details: Homo sapiens, 72 h; SAS; repeated experiment; read-out: The results of antibiotic drug inhibiting cancer cell lines (cell viability analysis), SAS
[20] = system: Hep3B (hepatocellular carcinoma); experiment: Cell viability analysis, hepatic cancer Hep3B; type: cell-based, human; details: Homo sapiens, 72 h; Hep3B; repeated experiment; read-out: The results of antibiotic drug inhibiting cancer cell lines (cell viability analysis), Hep3B
[21] = system: NIH: OVCAR-3; experiment: Cell viability analysis, ovarian cancer NIH: OVCAR-3; type: cell-based, human; details: Homo sapiens, 72 h; NIH-OVCAR-3; repeated experiment; read-out: The results of antibiotic drug inhibiting cancer cell lines (cell viability analysis), NIH-OVCAR-3
[22] = system: TSGH-8301 (Urinary Bladder Carcinoma); experiment: Cell viability analysis, bladder cancer TSGH-8301; type: cell-based, human; details: Homo sapiens, 72 h
[23] = system: HepG2 (Hepatocellular Carcinoma); experiment: Cell viability analysis, hepatic cancer HepG2; type: cell-based, human; details: Homo sapiens, HepG2, 72 h
[24] = system: cancer cell lines; experiment: Cell viability analysis (WST-1) on cancer cell lines; type: cell-based, human; details: drug 10 μM, 72 hours, WST-1; Table 3

CC[C@@H]([C@H](C)O)n1ncn(-c2ccc(N3CCN(c4ccc(OC[C@@H]5CO[C@@](Cn6cncn6)(c6ccc(F)cc6F)C5)cc4)CC3)cc2)c1=O [Posaconazole] was tested, and the viability at 10 µM [1] was 38.9%, the viability at 10 µM ([2]; repeated experiment, read-out: The results of antibiotic drug inhibiting cancer cell lines (cell viability analysis), HeLa) was 49.4% and the viability at 10 µM ([2]; drug 10 μM, 72 hours, WST-1, OD450 nm, read-out: cell viability (survival rate), HeLa) was 75.8%. For the same compound, the viability [3] was 51.6%, the viability at 10 µM [4] was 71.3% and the viability at 10 µM ([5]; MKN-45, repeated experiment, read-out: The results of antibiotic drug inhibiting cancer cell lines (cell viability analysis), MKN-45) was 92.8%. For the same compound, the viability at 10 µM ([5]; drug 10 μM, 72 hours, WST-1, OD450 nm, read-out: cell viability (survival rate), MKN-45) was 52%, the viability at 10 µM [6] was 60.4% and the viability at 10 µM ([7]; A375, repeated experiment, read-out: The results of antibiotic drug inhibiting cancer cell lines (cell viability analysis), A375) was 47.9%. The viability at 10 µM ([7]; drug 10 μM, 72 hours, WST-1, OD450 nm, read-out: cell viability (survival rate), A375) was 49.8%, the viability at 10 µM [8] was 37.3% and the viability at 10 µM ([9]; read-out: The results of antibiotic drug inhibiting cancer cell lines (cell viability analysis), LoVo, repeated experiment) was 62%. For the same compound, the viability at 10 µM ([9]; read-out: cell viability (survival rate), LoVo, drug 10 μM, 72 hours, WST-1, OD450 nm) was 73.7%, the viability at 10 µM ([10]; H1650, repeated experiment, read-out: The results of antibiotic drug inhibiting cancer cell lines (cell viability analysis), H1650) was 67.5% and the viability at 10 µM ([10]; drug 10 μM, 72 hours, WST-1, OD450 nm, read-out: cell viability (survival rate), H1650) was 67%. It also gave a viability at 10 µM ([11]; AGS, repeated experiment, read-out: The results of antibiotic drug inhibiting cancer cell lines (cell viability analysis), AGS) of 65.7%, a viability at 10 µM ([11]; drug 10 μM, 72 hours, WST-1, OD450 nm, read-out: cell viability (survival rate), AGS) of 42.7% and a viability at 10 µM [12] of 42.6%. The viability at 10 µM [13] was 35.5%, the viability at 10 µM [14] was 18.1% and the viability at 10 µM ([15]; MCF-7, repeated experiment, read-out: The results of antibiotic drug inhibiting cancer cell lines (cell viability analysis), MCF-7) was 48%. The viability at 10 µM ([15]; drug 10 μM, 72 hours, WST-1, OD450 nm, read-out: cell viability (survival rate), MCF7) was 63.6%, the viability at 10 µM [16] was 32.2% and the viability at 10 µM ([17]; A549, repeated experiment, read-out: The results of antibiotic drug inhibiting cancer cell lines (cell viability analysis), A549) was 18.1%. It also gave a viability at 10 µM ([17]; drug 10 μM, 72 hours, WST-1, OD450 nm, read-out: cell viability (survival rate), A549) of 42.9%, a viability at 10 µM ([18]; PC-3, repeated experiment, read-out: The results of antibiotic drug inhibiting cancer cell lines (cell viability analysis), PC-3) of 52.1% and a viability at 10 µM ([18]; drug 10 μM, 72 hours, WST-1, OD450 nm, read-out: cell viability (survival rate), PC3) of 45.3%. The viability at 10 µM [19] was 26.6%, the viability at 10 µM [20] was 95.2% and the viability at 10 µM [21] was 62.3%. It also gave a viability at 10 µM ([22]; TSGH-8301, repeated experiment, read-out: The results of antibiotic drug inhibiting cancer cell lines (cell viability analysis), TSGH-8301) of 81.9%, a viability at 10 µM ([22]; drug 10 μM, 72 hours, WST-1, OD450 nm, read-out: cell viability (survival rate), TSGH) of 51.3% and a viability at 10 µM ([23]; HepG2, repeated experiment, read-out: The results of antibiotic drug inhibiting cancer cell lines (cell viability analysis), HepG2) of 57.8%. The viability at 10 µM ([23]; drug 10 μM, 72 hours, WST-1, OD450 nm, read-out: cell viability (survival rate), HepG2) was 87.2% and the “inhibition effect on different cancer cell lines” value [24] was “significant inhibition effect”.
